Source: US11793982B2, “Drug delivery devices and methods of fabrication and use therefor” (Purdue Research Foundation, priority 2020, dated 2023)

Key:
[1] = tested on: epidermis and subcutaneous muscle on the backside of mice; test: In vivo tissue compatibility, real-time bioluminescence (luminol) imaging of acute inflammation; conditions: five hours post-injection
B16F10 melanoma cells = test: Murine melanoma model, inhibition of post-surgical residual melanoma; format: in vivo, C57BL/6 mice
[2] = tested on: B16F10 murine melanoma cells; conditions: cited from earlier work
mice = conditions: cited from earlier work

SMILES	acute inflammation at the implemented sites [1]	mice with significant growth of the tumors (B16F10 melanoma cells; intratumoral syringe injection, single dose 50 μl, n=5, ten days post-inoculation)	local skin lesions (B16F10 melanoma cells; syringe injection)	half maximal inhibitory concentration (IC50) [2]	lethal dose (LD50) (mice)
CCCCCCCCCCCCCC(=O)O[C@@H]1[C@@H](C)[C@@]2(O)[C@@H](C=C(CO)C[C@]3(O)C(=O)C(C)=C[C@@H]23)[C@@H]2C(C)(C)[C@]12OC(C)=O [PMA, phorbol 12-myristate 13-acetate]	acute inflammation appeared				
COc1cccc2c1C(=O)c1c(O)c3c(c(O)c1C2=O)C[C@@](O)(C(=O)CO)C[C@@H]3O[C@H]1C[C@H](N)[C@H](O)[C@H](C)O1 [DOX, doxorubicin]		four out of five mice	local skin lesions were observed	about 0.3 μg/ml	about 192 μg
